For data set [1] the following is noted: U.S. Pat. No. 4,382,892; Antimicrobial Agent & Chemotherapy, Vol. 29, 163-164 (1986); cited from earlier work.
Data set [2] concerns mice. In words: Acute toxicity in mice. The conditions noted are these: p.o.
Data set [3] can be described thus: Antimicrobial activity of Ofloxacin and S-compound (general statement). The settings on record: compared with Ofloxacin.
Data set [4] in a line: Stability of S-compound in aqueous solution. It counts as physicochemical. The conditions noted are these: 0.5% (wt./vol.) aqueous solution, pH 3 to 10, 2 weeks.

Where two headings read alike, the source gives them in different places.

For `CC1COc2c(N3CCN(C)CC3)c(F)cc3c(=O)c(C(=O)O)cn1c23` (racemic) [Ofloxacin, (±)-9-fluoro-3-methyl-10-(4-methyl-1-piperazinyl)-7-oxo-2,3-dihydro-7H-pyrido[1,2,3de][1,4]benzoxazine-6-carboxylic acid], in data set [1], the antimicrobial activities result is recorded as “excellent antimicrobial agent”. Besides, the “LD50 (acute toxicity)” value in data set [2] turned out to be 5450 mg/kg.

As for `C[C@H]1COc2c(N3CCN(C)CC3)c(F)cc3c(=O)c(C(=O)O)cn1c23` [S-compound, S-(-)-9-fluoro-3-methyl-10-(4-methyl-1-piperazinyl)-7-oxo-2,3-dihydro-7H-pyrido[1,2,3de][1,4]benzoxazine-6-carboxylic acid], the antimicrobial activities entry in data set [3] is “high antimicrobial activities”; in data set [1], “potential antimicrobial activities”. The “decomposition (residual amount of S-compound)” value in data set [4] is “no decomposition was observed at all”.

(Values after patent publication US4923862A, “Topical preparation containing ofloxacin” (priority 1986, dated 1990).)
